For one assay, the target named is T1, Human PARP-1 enzyme (Homo sapiens, UniProt P09874).
T1 construct: purchased Trevigen
Nature of the assay: In vitro scintillation proximity assay (SPA) for PARP-1 inhibitory activity. The assay is classed as biochemical. To be noted: nicked DNA activated PARP-1, [3H]-NAD+, biotinylated histones; tested between 10^-5 M and 3x10^-9 M; read-out: in vitro SPA assay PARP-1 pIC50 (converted). The method, then:
C.1. In Vitro Scintillation Proximity Assay (SPA) for PARP-1 Inhibitory Activity
Compounds of the present invention were tested in an in vitro assay based on SPA technology (proprietary to GE healthcare).
In principle, the assay relies upon the well established SPA technology for the detection of poly(ADP-ribosyl)ation of biotinylated target proteins, i.e histones. This ribosylation is induced using nicked DNA activated PARP-1 enzyme and [^3H]-nicotinamide adenine dinucleotide ([^3H]-NAD^+) as ADP-ribosyl donor.
Histones (type II-A, supplier: Sigma) were biotinylated using the biotinylation kit of Amersham and stored aliquoted at −20° C. A stock solution of 100 mg/ml SPA poly(vinyl toluene) (PVT) beads (supplier: Amersham) was made in PBS. A stock solution of 61.6 nM [^3H]-NAD^+ was made by adding [^3H]-NAD^+ (0.1 mCi/ml, supplier: Perkin Elmer) to incubation buffer (50 mM Tris/HCl, pH 8; 0.2 mM DTT; 4 mM MgCl2). A solution of 4 mM NAD^+ (supplier: Sigma) was made. Human PARP-1 enzyme was obtained from Trevigen. Biotinylated histones and PVT-SPA beads were mixed and pre-incubated for 30 min. at room temperature. PARP-1 enzyme (concentration was lot dependent) was mixed with the nicked DNA and the mixture was pre-incubated for 30 min. at 4° C. Equal parts of this histones/PVT-SPA beads solution and PARP-1 enzyme/DNA solution were mixed and 75 μl of this mixture together with 1 μl of compound in DMSO and 25 μl of [^3H]-NAD^+ was added per well into a 96-well microtiterplate. The final concentrations in the incubation mixture were 2 μg/ml for the biotinylated histones, 2 mg/ml for the PVT-SPA beads, 0.25 μg/ml for the nicked DNA and between 0.1-0.2 μg/ml for the PARP-1 enzyme. After incubation of the mixture for 20 min. at room temperature, the reaction was terminated by adding 100 μl of 4 mM NAD^+ in water (final concentration 2 mM) and plates were mixed. The beads were sedimented by centrifugation (10 min, 800 rpm). and plates transferred to a TopCountNXT™ (Packard) for scintillation counting, values were expressed as counts per minute (cpm). For each experiment, controls (containing PARP-1 enzyme and DMSO without compound), a blank incubation (containing DMSO but no PARP-1 enzyme, no DNA or compound) and samples (containing PARP-1 enzyme, DNA and compound dissolved in DMSO) were run in parallel. All compounds tested were dissolved and eventually further diluted in DMSO. A dose-response curve was made wherein the compounds were tested at concentrations between 10^−5M and 3×10^−9M. In each test, the blank value was subtracted from both the control and the sample values. The control sample represented maximal PARP-1 enzyme activity. For each sample, the amount of cpm was expressed as a percentage of the mean cpm value of the controls. When appropriate, IC50-values (concentration of the drug, needed to reduce the PARP-1 enzyme activity to 50% of the control) were computed using linear interpolation between the experimental points just above and below the 50% level. Herein the effects of test compounds are expressed as pIC50 (the negative log value of the IC50-value). As a reference compound, 4-amino-1,8-naphthalimide was included to validate the SPA assay.

In another assay the target is T2, TANK-2 enzyme (Homo sapiens, UniProt Q9H2K2).
T2 construct: made in house
T2 sequence (Q9H2K2 1-1166): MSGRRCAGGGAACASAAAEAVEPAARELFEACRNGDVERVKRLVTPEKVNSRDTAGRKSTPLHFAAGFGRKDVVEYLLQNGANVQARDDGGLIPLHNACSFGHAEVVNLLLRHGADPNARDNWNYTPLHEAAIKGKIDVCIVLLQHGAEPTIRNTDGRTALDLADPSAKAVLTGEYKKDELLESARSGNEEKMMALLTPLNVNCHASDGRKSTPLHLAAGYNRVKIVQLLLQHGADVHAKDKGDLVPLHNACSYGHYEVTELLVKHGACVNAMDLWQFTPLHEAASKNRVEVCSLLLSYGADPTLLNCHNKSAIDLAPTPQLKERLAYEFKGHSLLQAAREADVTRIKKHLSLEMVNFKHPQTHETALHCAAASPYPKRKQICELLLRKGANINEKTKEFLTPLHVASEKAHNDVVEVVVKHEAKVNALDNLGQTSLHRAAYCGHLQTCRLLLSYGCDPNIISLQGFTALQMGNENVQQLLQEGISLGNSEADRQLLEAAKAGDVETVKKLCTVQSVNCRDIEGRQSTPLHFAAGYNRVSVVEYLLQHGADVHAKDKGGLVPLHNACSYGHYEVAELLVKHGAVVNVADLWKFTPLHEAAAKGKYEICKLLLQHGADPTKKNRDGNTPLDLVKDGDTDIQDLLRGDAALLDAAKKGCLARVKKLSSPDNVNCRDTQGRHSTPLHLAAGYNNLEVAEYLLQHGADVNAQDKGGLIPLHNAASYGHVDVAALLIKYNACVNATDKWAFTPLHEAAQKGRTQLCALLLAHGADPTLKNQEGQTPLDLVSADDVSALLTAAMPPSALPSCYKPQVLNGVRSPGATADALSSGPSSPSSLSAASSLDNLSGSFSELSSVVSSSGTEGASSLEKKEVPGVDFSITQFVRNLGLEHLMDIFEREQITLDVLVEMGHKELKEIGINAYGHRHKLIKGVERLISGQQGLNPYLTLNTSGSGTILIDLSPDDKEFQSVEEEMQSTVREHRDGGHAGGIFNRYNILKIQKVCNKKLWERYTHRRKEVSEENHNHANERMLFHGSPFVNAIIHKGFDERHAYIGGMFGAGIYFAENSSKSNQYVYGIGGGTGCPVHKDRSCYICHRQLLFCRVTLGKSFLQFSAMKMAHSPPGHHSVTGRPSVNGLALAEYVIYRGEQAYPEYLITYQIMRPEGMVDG
The assay can be described thus: In vitro scintillation proximity assay (SPA) for TANK-2 inhibitory activity. To be noted: auto-poly(ADP-ribosyl)ation, Ni flash plates; 96-well results if available, otherwise 384-well; tested between 10^-5 M and 3x10^-8 M; read-out: in vitro SPA assay TANK-2 pIC50 (converted). The assay is classed as biochemical. The method, then:
C.2. In Vitro Scintillation Proximity Assay (SPA) for TANK-2 Inhibitory Activity
Compounds of the present invention were tested in an in vitro assay based on SPA technology with Ni Flash plates (96 or 384 well).
In principle, the assay relies upon SPA technology for the detection of auto-poly(ADP-ribosyl)ation of TANK-2 protein using [^3H]-nicotinamide adenine dinucleotide ([^3H]-NAD^+) as ADP-ribosyl donor.
A stock solution of 100 nM [^3H]-NAD^+/NAD (0.1 mCi/ml, supplier: Perkin Elmer) and 0.25 mM NAD (Sigma) was made in assay buffer (60 mM Tris/HCl, pH 7.4; 0.9 mM DTT; 6 mM MgCl2). The TANK-2 enzyme was produced as described in EP1238063. 60 μl of assay buffer, together with 1 μl of compound in DMSO, 20 μl of [^3H]-NAD^+/NAD and 20 μl of TANK-2 enzyme (final concentration 8 μg/ml) was added per well into a 96-well Ni-coated flash plate (Perkin Elmer). After incubation of the mixture for 120 min. at room temperature, the reaction was terminated by adding 60 μl of stopsolution (42.6 mg NAD in 6 ml H2O). The plates were covered with a plate sealer and placed in a TopCountNX™ (Packard) for scintillation counting. Values were expressed as counts per minute (cpm). For each experiment, controls (containing TANK-2 enzyme and DMSO without compound), a blank incubation (containing DMSO but no TANK-2 enzyme or compound) and samples (containing TANK-2 enzyme and compound dissolved in DMSO) were run in parallel. All compounds tested were dissolved and eventually further diluted in DMSO. […] In each test, the blank value was subtracted from both the control and the sample values. The control sample represented maximal TANK-2 enzyme activity. For each sample, the amount of cpm was expressed as a percentage of the mean cpm value of the controls. When appropriate, IC50-values (concentration of the drug, needed to reduce the TANK-2 enzyme activity to 50% of the control) were computed using linear interpolation between the experimental points just above and below the 50% level. Herein the effects of test compounds are expressed as pIC50 (the negative log value of the IC50-value). As reference compounds, 3-aminobenzamide and 4-amino-1,8-naphtalimide were included to validate the SPA assay. Herein the assay was described using 96-well plates. In the assay using 384-well plates the same final concentrations were used and volumes were adapted.
In general terms: Scintillation proximity formats need no separation of bound from free tracer.

T1 sequence (P09874 whole entry): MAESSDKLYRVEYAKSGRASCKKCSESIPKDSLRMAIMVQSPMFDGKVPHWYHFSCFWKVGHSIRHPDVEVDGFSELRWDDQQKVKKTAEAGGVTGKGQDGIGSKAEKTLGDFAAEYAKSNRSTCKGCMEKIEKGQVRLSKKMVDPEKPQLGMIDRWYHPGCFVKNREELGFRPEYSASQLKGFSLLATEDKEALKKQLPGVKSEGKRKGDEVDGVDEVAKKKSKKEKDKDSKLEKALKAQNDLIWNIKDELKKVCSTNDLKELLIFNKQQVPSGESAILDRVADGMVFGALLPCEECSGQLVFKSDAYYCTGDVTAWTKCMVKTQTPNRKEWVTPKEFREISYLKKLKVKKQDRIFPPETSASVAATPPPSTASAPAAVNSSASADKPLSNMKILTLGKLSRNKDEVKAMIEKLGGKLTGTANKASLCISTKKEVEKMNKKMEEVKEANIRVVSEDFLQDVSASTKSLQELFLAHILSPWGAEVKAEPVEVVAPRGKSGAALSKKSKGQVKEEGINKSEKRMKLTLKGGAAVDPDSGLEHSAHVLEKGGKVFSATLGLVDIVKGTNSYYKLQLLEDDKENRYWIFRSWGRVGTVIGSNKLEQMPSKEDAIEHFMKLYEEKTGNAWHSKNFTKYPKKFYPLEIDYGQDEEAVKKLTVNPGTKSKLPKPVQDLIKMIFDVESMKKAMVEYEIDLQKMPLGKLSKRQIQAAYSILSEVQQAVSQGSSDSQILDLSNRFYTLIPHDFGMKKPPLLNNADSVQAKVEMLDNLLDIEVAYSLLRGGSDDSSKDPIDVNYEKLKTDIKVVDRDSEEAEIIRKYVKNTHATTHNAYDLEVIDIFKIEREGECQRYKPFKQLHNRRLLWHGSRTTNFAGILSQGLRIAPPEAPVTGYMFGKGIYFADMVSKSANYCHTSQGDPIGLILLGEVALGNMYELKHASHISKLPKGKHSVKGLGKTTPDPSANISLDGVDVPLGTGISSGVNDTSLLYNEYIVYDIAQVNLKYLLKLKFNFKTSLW

For `CCc1cc2ccc(C(CO)N3CCOCC3)cc2[nH]c1=O` (centres unmarked) [Compound 5], the IC50 at Human PARP-1 enzyme was 82.8 nM; at TANK-2 enzyme, 1440 nM.
Taken in the same sequence, the figures for `CCc1cc2ccc(CCCN3CCN(c4ccc(C#N)cn4)CC3)cc2[nH]c1=O` [Compound 8] were 170 nM and 63.2 nM.
Take `CCc1cc2ccc(CN3CCN(c4ncc(C(=O)O)cn4)CC3)cc2[nH]c1=O` [Compound 12]: the IC50 on Human PARP-1 enzyme was 77.1 nM; on TANK-2 enzyme, 65.5 nM.
With `CCc1cc2ccc(CN3CCN(c4ccc(C#N)cn4)CC3)cc2[nH]c1=O` [Compound 17], the figures for the IC50 at Human PARP-1 enzyme and on TANK-2 enzyme were 0.865 nM and 76.6 nM, respectively.
In the same order, the values of `CCc1cc2ccc(CN3CCN(c4ccccc4Cl)CC3)cc2[nH]c1=O` [Compound 18] are 0.566 nM and 1930 nM.
Turning to `CCc1cc2ccc(CNCCN3CCOCC3)cc2[nH]c1=O` [Compound 19], the IC50 at Human PARP-1 enzyme was 4.6 nM; at TANK-2 enzyme, 5870 nM.
For `CCc1cc2ccc(CN3CC=C(c4ccccc4)CC3)cc2[nH]c1=O` [Compound 21], the values for the IC50 at Human PARP-1 enzyme and at TANK-2 enzyme were 1.03 nM and 986 nM, respectively.
Turning to `CCc1cc2ccc(CN3CCN(c4ccc(C(F)(F)F)cn4)CC3)cc2[nH]c1=O` [Compound 22], the IC50 was 1.21 nM at Human PARP-1 enzyme and 368 nM on TANK-2 enzyme.
With `CCc1cc2ccc(CNCCN3CCN(c4ncccn4)CC3)cc2[nH]c1=O` [Compound 24], the figures for the IC50 at Human PARP-1 enzyme and on TANK-2 enzyme were 80.4 nM and 1000 nM, respectively.
As for `CCc1cc2ccc(CNCC3CCN(c4ncccn4)CC3)cc2[nH]c1=O` [Compound 25], the IC50 on Human PARP-1 enzyme was 136 nM; at TANK-2 enzyme it was 1100 nM.
In the same order, the values of `Cc1cc2ccc(CN3CCN(c4ncccn4)CC3)cc2[nH]c1=O` [Compound 26] are 237 nM and 1980 nM.
In the case of `CCc1cc2ccc(CN3CCN(CCOC)CC3)cc2[nH]c1=O` [Compound 27], the IC50 at Human PARP-1 enzyme is 65 nM; at TANK-2 enzyme, 3960 nM.
Regarding `CCc1cc2ccc(CN3C[C@@H]4C[C@H]3CN4c3ccc(Cl)cc3)cc2[nH]c1=O` [Compound 28], the IC50 at Human PARP-1 enzyme was 34.8 nM; on TANK-2 enzyme, 650 nM.
Take `CCc1cc2ccc(CN3CCc4ccccc4C3)cc2[nH]c1=O` [Compound 29]: the values for the IC50 at Human PARP-1 enzyme and at TANK-2 enzyme were 20 nM and 424 nM, respectively.
Regarding `CCc1cc2ccc(CN3CCN(c4ncccn4)CC3)cc2[nH]c1=O` [Compound 30], the IC50 is 14.3 nM on Human PARP-1 enzyme and 188 nM at TANK-2 enzyme.
For `CCc1cc2ccc(CN3CCC(Cc4ccccc4)CC3)cc2[nH]c1=O` [Compound 31], the IC50 on Human PARP-1 enzyme is 403 nM; on TANK-2 enzyme, 3120 nM.
Taken in the same sequence, the figures for `CCc1cc2ccc(C(O)CN3CCN(c4ncccn4)CC3)cc2[nH]c1=O` (centres unmarked) [Compound 32] were 89.5 nM and 92.3 nM.
In the same order, the values of `CCc1cc2ccc(C(CO)N3CCN(c4ncccn4)CC3)cc2[nH]c1=O` (centres unmarked) [Compound 33] are 84.7 nM and 780 nM.
In the same order, the values of `CCc1cc2ccc(C(O)CN3CCC(Cc4ccccc4)CC3)cc2[nH]c1=O` (centres unmarked) [Compound 34] are 94.6 nM and 391 nM.
For the molecule `CCc1cc2ccc(CN3CCN(c4ccncc4)CC3)cc2[nH]c1=O` [Compound 35], the IC50 was 1.14 nM on Human PARP-1 enzyme and 398 nM at TANK-2 enzyme.
In the same order, the values of `CCc1cc2ccc(CN3CCN(c4cnccn4)CC3)cc2[nH]c1=O` [Compound 36] are 2.55 nM and 222 nM.
In the same order, the values of `CCc1cc2ccc(CN3CCN(c4n[nH]c5ccccc45)CC3)cc2[nH]c1=O` [Compound 37] are 5.68 nM and 232 nM.
In the same order, the values of `CCc1cc2ccc(CN(C)CCOC)cc2[nH]c1=O` [Compound 38] are 11.9 nM and 867 nM.
In the case of `CCc1cc2ccc(CN3CCN(c4ccc(C)c(C)c4)CC3)cc2[nH]c1=O` [Compound 40], the IC50 at Human PARP-1 enzyme was 25.6 nM; on TANK-2 enzyme it was 649 nM.
With `CCc1cc2ccc(CN3CCN(c4ccc(OC)c(OC)c4)CC3)cc2[nH]c1=O` [Compound 41], the IC50 on Human PARP-1 enzyme is 34.2 nM; on TANK-2 enzyme, 500 nM.
In the same order, the values of `CCc1cc2ccc(CN3CCN(c4ccc(OC)cc4)CC3)cc2[nH]c1=O` [Compound 42] are 0.893 nM and 1300 nM.
For the molecule `CCc1cc2c(OC)cc(CN3CCN(c4ccc(C#N)cn4)CC3)cc2[nH]c1=O` [Compound 69], on TANK-2 enzyme, the IC50 was 57.5 nM.

Source of the values: patent US8404713B2, “Quinolinone derivatives as PARP inhibitors” (Janssen Pharmaceutica NV, priority 2007, dated 2013).
